Reference: patent US6461997B1, “Triazole sulfones having herbicidal activity” (Monsanto Technology LLC, priority 1999, dated 2002)

Legend:
SOLNI (black nightshade) [1] = test: Pre-emergence herbicidal activity, warm season; format: in vivo, Solanum nigrum; conditions: for Pre-emergence activity (GR80) SOLNI: GR80 = lowest tested rate (300, 100, 30, 10 g/ha) with 80% or greater inhibition, approx. 14 days after treating, 30/21° C.
In short: (§1)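 GR80 values derive from percent inhibition relative to untreated plants, read roughly 14 days after sowing and pre-emergence soil-surface treatment (compound in 50:50 acetone/water; rates typically 10, 30, 100, 300 g/ha). Warm-season weeds grew at 30/21° C day/night, cool-season ones at 18/13° C; an asterisk marks activity without reaching 80% at the highest rate.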

[2] = tested on: CHEAL (common lambsquarters); test: Pre-emergence herbicidal activity, warm season; format: in vivo, Chenopodium album; conditions: GR80 = lowest tested rate (300, 100, 30, 10 g/ha) with 80% or greater inhibition; approx. 14 days after treating; 30/21° C.
In short: as §1

[3] = tested on: GALAP (catchweed bedstraw); test: Pre-emergence herbicidal activity, cool season; format: in vivo, Galium aparine; conditions: lowest tested rate with 80% or greater inhibition; rates 300, 100, 30, 10 g/ha; about 14 days
In short: as §1

[4] = tested on: LAMPU (purple deadnettle); test: Pre-emergence herbicidal activity, cool season; format: in vivo, Lamium purpureum; conditions: lowest tested rate with 80% or greater inhibition; rates 300, 100, 30, 10 g/ha; about 14 days
In short: as §1

ABUTH (velvetleaf) = test: Pre-plant incorporated (PPI) herbicidal activity, warm season; format: in vivo, Abutilon theophrasti; conditions: for PPI activity (GR80) ABUTH: pre-plant incorporated, GR80 = lowest tested rate with 80% or greater inhibition, approx. 14 days after treating, 30/21° C.
Method: (§2) In another set of tests, the pre-plant incorporated (PPI) activity of compounds of this invention was evaluated on the same species as for the pre-emergence tests described above. In the PPI tests the following procedure, designed to simulate PPI application, was used.
(§3) A pre-prepared topsoil mixture (described above) was placed in a pot and compacted to a depth of 1.0 to 1.25 cm from the top of the pot. Seeds of each of several monocotyledonous and dicotyledonous annual plant species were placed on top of the soil. A sufficient quantity of soil to cover the seeds and level fill the pot was weighed into an open container. A known amount of the test compound was dissolved or suspended in an organic solvent and applied by spraying to this cover soil. The cover soil was thoroughly mixed to distribute the test compound throughout the cover soil, and was then applied as a cover layer over the seeds. Untreated soil was used as a cover layer for control pots. After treatment the plants were placed in a greenhouse where they received 0.64 cm of overhead irrigation. All subsequent watering consisted of a light overhead mist and/or subirrigation as needed for germination and growth. Tables 9 and 10 below relate to warm season plant species which were placed after pre-emergence treatment in a greenhouse with a 30/21° C. day/night temperature regime. Tables 11 and 12 below relates to cool season plant species placed after pre-emergence treatment in a greenhouse or growth chamber with an 18/13° C. day/night temperature regime. Only the compounds of Examples 1, 6, 8, 11, 13 and 15-20 were included in PPI tests.
(§4) Approximately 14 days after planting and treating, the plants were observed and herbicidal efficacy recorded as percent inhibition by comparison with untreated plants.

SOLNI (black nightshade) [5] = test: as above; format: in vivo, Solanum nigrum; conditions: for PPI activity (GR80) SOLNI: pre-plant incorporated, GR80 = lowest tested rate with 80% or greater inhibition, approx. 14 days after treating, 30/21° C.
Method: as §2, §3, §4

SETFA (giant foxtail) [6] = test: as above; format: in vivo, Setaria faberi; conditions: for PPI activity GR80, SETFA: pre-plant incorporated, lowest tested rate with 80% or greater inhibition, about 14 days
Method: as §2, §3, §4

SINAR (wild mustard) = test: Pre-plant incorporated (PPI) herbicidal activity, cool season; format: in vivo, Sinapis arvensis; conditions: for PPI activity GR80, SINAR: pre-plant incorporated, lowest tested rate with 80% or greater inhibition, about 14 days; for Percent inhibition SINAR: weed, PPI application
Method: as §2, §3, §4

BROTE (downy brome) = test: as above; format: in vivo, Bromus tectorum; conditions: for PPI activity GR80, BROTE: pre-plant incorporated, lowest tested rate with 80% or greater inhibition, about 14 days; for Percent inhibition BROTE: weed, PPI application
Method: as §2, §3, §4

oilseed rape (BRSNS) = test: Selectivity test, PPI, cool season crop; format: in vivo, Brassica napus; conditions: PPI application
Method: as §3, §4
Additional pre-emergence and PPI tests were conducted by the procedures described above, on warm and cool season weed species in the presence of crop species, to assess herbicidal selectivity. Crop species included in warm season tests were corn (Zea mays, ZEAMX), rice (Oryza sativa, ORYSA) and soybean (Glycine max, GLYMX). Crop species included in cool season tests were wheat (Triticum aestivum, TRZAW), barley (Hordeunm vulgare, HORVX) and oilseed rape (Brassica napus, BRSNS).
Tables 15 and 16 relate to pre-emergence and PPI tests respectively on warm season species. Table 17 relates to pre-emergence tests on cool season species.

SETFA (giant foxtail) [7] = test: Pre-emergence herbicidal activity, warm season; format: in vivo, Setaria faberi; conditions: for Pre-emergence activity (GR80) SETFA: GR80 = lowest tested rate (300, 100, 30, 10 g/ha) with 80% or greater inhibition, approx. 14 days after treating, 30/21° C.
In short: as §1

CCN(CC)C(=O)n1cnc(S(=O)(=O)C(F)(F)SCC(=O)OC)n1 [Example 11]
Pre-emergence activity (GR80) SOLNI (SOLNI (black nightshade) [1]): 300 g/ha
Pre-emergence activity (GR80) CHEAL [2]: 300 g/ha
Pre-emergence activity GR80, GALAP [3]: [empty]
Pre-emergence activity GR80, LAMPU [4]: 100 g/ha
Percent inhibition ABUTH (ABUTH (velvetleaf); PPI application, 10 g/ha): 0%
Percent inhibition ABUTH (ABUTH (velvetleaf); PPI application, 30 g/ha): 0%
Percent inhibition ABUTH (ABUTH (velvetleaf); PPI application, 100 g/ha): 0%
Percent inhibition ABUTH (ABUTH (velvetleaf); PPI application, 300 g/ha): 20%
Percent inhibition ABUTH (ABUTH (velvetleaf); PPI application, 900 g/ha): 20%
PPI activity (GR80) ABUTH (ABUTH (velvetleaf)): 300 g/ha
Percent inhibition SOLNI (SOLNI (black nightshade) [5]; PPI application, 10 g/ha): 0%
Percent inhibition SOLNI (SOLNI (black nightshade) [5]; PPI application, 30 g/ha): 0%
Percent inhibition SOLNI (SOLNI (black nightshade) [5]; PPI application, 100 g/ha): 30%
Percent inhibition SOLNI (SOLNI (black nightshade) [5]; PPI application, 300 g/ha): 50%
Percent inhibition SOLNI (SOLNI (black nightshade) [5]; PPI application, 900 g/ha): 100%
PPI activity (GR80) SOLNI (SOLNI (black nightshade) [5]): 300 g/ha
Percent inhibition SETFA (SETFA (giant foxtail) [6]; PPI application, 10 g/ha): 0%
Percent inhibition SETFA (SETFA (giant foxtail) [6]; PPI application, 30 g/ha): 0%
Percent inhibition SETFA (SETFA (giant foxtail) [6]; PPI application, 100 g/ha): 90%
Percent inhibition SETFA (SETFA (giant foxtail) [6]; PPI application, 300 g/ha): 60%
Percent inhibition SETFA (SETFA (giant foxtail) [6]; PPI application, 900 g/ha): 100%
PPI activity GR80, SETFA (SETFA (giant foxtail) [6]): 300 g/ha
PPI activity GR80, SINAR (SINAR (wild mustard)): 100 g/ha
Percent inhibition SINAR (SINAR (wild mustard); 10 g/ha): 0%
Percent inhibition SINAR (SINAR (wild mustard); 30 g/ha): 0%
Percent inhibition SINAR (SINAR (wild mustard); 100 g/ha): 0%
Percent inhibition SINAR (SINAR (wild mustard); 300 g/ha): 0%
Percent inhibition SINAR (SINAR (wild mustard); 900 g/ha): 99%
PPI activity GR80, BROTE (BROTE (downy brome)): [empty]
Percent inhibition BROTE (BROTE (downy brome); 10 g/ha): 0%
Percent inhibition BROTE (BROTE (downy brome); 30 g/ha): 0%
Percent inhibition BROTE (BROTE (downy brome); 100 g/ha): 0%
Percent inhibition BROTE (BROTE (downy brome); 300 g/ha): 0%
Percent inhibition BROTE (BROTE (downy brome); 900 g/ha): 20%
Percent inhibition BRSNS (oilseed rape (BRSNS); 10 g/ha): 0%
Percent inhibition BRSNS (oilseed rape (BRSNS); 30 g/ha): 0%
Percent inhibition BRSNS (oilseed rape (BRSNS); 100 g/ha): 0%
Percent inhibition BRSNS (oilseed rape (BRSNS); 300 g/ha): 0%
Percent inhibition BRSNS (oilseed rape (BRSNS); 900 g/ha): 0%

CCN(CC)C(=O)n1cnc(S(=O)(=O)C(F)F)n1 [Example 15, 1-(N,N-diethylcarbamoyl)-3-(difluoromethylsulfonyl)-1,2,4-triazole]
Pre-emergence activity (GR80) SOLNI (SOLNI (black nightshade) [1]): 100 g/ha
inhibition at 10 g/ha (SOLNI (black nightshade) [1]; Solanum nigrum, pre-emergence application, 10 g/ha, read-out: Percent inhibition, weed SOLNI): 0%
inhibition at 30 g/ha (SOLNI (black nightshade) [1]; Solanum nigrum, pre-emergence application, 30 g/ha, read-out: Percent inhibition, weed SOLNI): 0%
inhibition at 100 g/ha (SOLNI (black nightshade) [1]; Solanum nigrum, pre-emergence application, 100 g/ha, read-out: Percent inhibition, weed SOLNI): 0%
inhibition at 300 g/ha (SOLNI (black nightshade) [1]; Solanum nigrum, pre-emergence application, 300 g/ha, read-out: Percent inhibition, weed SOLNI): 0%
inhibition at 900 g/ha (SOLNI (black nightshade) [1]; Solanum nigrum, pre-emergence application, 900 g/ha, read-out: Percent inhibition, weed SOLNI): 0%
Pre-emergence activity (GR80) SETFA (SETFA (giant foxtail) [7]): 100 g/ha
inhibition at 10 g/ha (SETFA (giant foxtail) [7]; Setaria faberi, pre-emergence application, 10 g/ha, read-out: Percent inhibition, weed SETFA): 0%
inhibition at 30 g/ha (SETFA (giant foxtail) [7]; Setaria faberi, pre-emergence application, 30 g/ha, read-out: Percent inhibition, weed SETFA): 0%
inhibition at 100 g/ha (SETFA (giant foxtail) [7]; Setaria faberi, pre-emergence application, 100 g/ha, read-out: Percent inhibition, weed SETFA): 99%
inhibition at 300 g/ha (SETFA (giant foxtail) [7]; Setaria faberi, pre-emergence application, 300 g/ha, read-out: Percent inhibition, weed SETFA): 70%
inhibition at 900 g/ha (SETFA (giant foxtail) [7]; Setaria faberi, pre-emergence application, 900 g/ha, read-out: Percent inhibition, weed SETFA): 100%
inhibition at 10 g/ha (ABUTH (velvetleaf); Abutilon theophrasti, PPI application, 10 g/ha, read-out: Percent inhibition ABUTH): 0%
inhibition at 30 g/ha (ABUTH (velvetleaf); Abutilon theophrasti, PPI application, 30 g/ha, read-out: Percent inhibition ABUTH): 0%
inhibition at 100 g/ha (ABUTH (velvetleaf); Abutilon theophrasti, PPI application, 100 g/ha, read-out: Percent inhibition ABUTH): 20%
inhibition at 300 g/ha (ABUTH (velvetleaf); Abutilon theophrasti, PPI application, 300 g/ha, read-out: Percent inhibition ABUTH): 50%
inhibition at 900 g/ha (ABUTH (velvetleaf); Abutilon theophrasti, PPI application, 900 g/ha, read-out: Percent inhibition ABUTH): 40%
PPI activity (GR80) ABUTH (ABUTH (velvetleaf)): 100 g/ha
inhibition at 10 g/ha (SOLNI (black nightshade) [5]; Solanum nigrum, PPI application, 10 g/ha, read-out: Percent inhibition SOLNI): 0%
inhibition at 30 g/ha (SOLNI (black nightshade) [5]; Solanum nigrum, PPI application, 30 g/ha, read-out: Percent inhibition SOLNI): 0%
inhibition at 100 g/ha (SOLNI (black nightshade) [5]; Solanum nigrum, PPI application, 100 g/ha, read-out: Percent inhibition SOLNI): 20%
inhibition at 300 g/ha (SOLNI (black nightshade) [5]; Solanum nigrum, PPI application, 300 g/ha, read-out: Percent inhibition SOLNI): 100%
inhibition at 900 g/ha (SOLNI (black nightshade) [5]; Solanum nigrum, PPI application, 900 g/ha, read-out: Percent inhibition SOLNI): 99%
PPI activity (GR80) SOLNI (SOLNI (black nightshade) [5]): 100 g/ha
inhibition at 30 g/ha (SETFA (giant foxtail) [6]; Setaria faberi, PPI application, 30 g/ha, read-out: Percent inhibition SETFA): 40%
inhibition at 100 g/ha (SETFA (giant foxtail) [6]; Setaria faberi, PPI application, 100 g/ha, read-out: Percent inhibition SETFA): 99%
inhibition at 300 g/ha (SETFA (giant foxtail) [6]; Setaria faberi, PPI application, 300 g/ha, read-out: Percent inhibition SETFA): 100%
inhibition at 900 g/ha (SETFA (giant foxtail) [6]; Setaria faberi, PPI application, 900 g/ha, read-out: Percent inhibition SETFA): 100%
PPI activity GR80, SETFA (SETFA (giant foxtail) [6]): 30 g/ha
PPI activity GR80, SINAR (SINAR (wild mustard)): 100 g/ha
PPI activity GR80, BROTE (BROTE (downy brome)): * (activity observed, at least at highest rate, but <80% inhibition)

CCN(CC)C(=O)n1cnc(S(=O)(=O)C(F)(F)C(=O)c2ccccc2)n1 [Example 6]
Pre-emergence activity (GR80) CHEAL [2]: 300 g/ha
Pre-emergence activity (GR80) SETFA (SETFA (giant foxtail) [7]): * (activity observed, at least at highest rate, but <80% inhibition)
Pre-emergence activity GR80, GALAP [3]: 100 g/ha
Pre-emergence activity GR80, LAMPU [4]: 100 g/ha
PPI activity (GR80) SOLNI (SOLNI (black nightshade) [5]): 100 g/ha
PPI activity GR80, SETFA (SETFA (giant foxtail) [6]): 100 g/ha
PPI activity GR80, SINAR (SINAR (wild mustard)): 300 g/ha
PPI activity GR80, BROTE (BROTE (downy brome)): * (activity observed, at least at highest rate, but <80% inhibition)

CCN(CC)C(=O)n1cnc(S(=O)(=O)C(F)(F)C(F)(F)SC)n1 [Example 14]
Pre-emergence activity (GR80) SOLNI (SOLNI (black nightshade) [1]): 300 g/ha
Pre-emergence activity (GR80) CHEAL [2]: 300 g/ha
Pre-emergence activity (GR80) SETFA (SETFA (giant foxtail) [7]): 100 g/ha
Pre-emergence activity GR80, GALAP [3]: 30 g/ha
Pre-emergence activity GR80, LAMPU [4]: 300 g/ha
